Measurements reported in US10603289B2, “Process for the manufacture of ajoene derivatives” (DANMARKS TEKNISKE UNIVERSITET, priority 2010, dated 2020).

Tests used:
[1] = system: P. aeruginosa biofilms exposed to PMNs; experiment: Flow chamber biofilm exposed to PMNs, propidium iodide staining; assay type: cell-based; details: biofilm grown four days in the presence of 100 μg/ml ajoene; E:Z 1:4
Method: A) The biofilm has grown without ajoene in the medium. B) The biofilm has grown in the presence of 100 μg/mL ajoene in the medium. Red fluorescence indicates necrotic PMN's leaking out their content of DNA (as stained by PI). Green fluorescence indicates top areas of the P. aeruginosa biofilm.
Biofilms exposed to PMN leukocytes produce rhamnolipids that function as a shield and protects the biofilm bacteria from phagocytosis. […] 20-42]. The P. aeruginosa biofilms were grown for four days either in the presence or absence of 100 μg/ml ajoene. When PMNs subsequently were introduced in the flow chambers on top of the biofilms grown in the absence of ajoene, propidium iodide (PI) staining indicated necrosis of the PMNs (FIG. 5A). […] Ajoene treatment therefore rescues the PMN leukocytes by blocking biofilm synthesis of […]. It has previously been shown that rescued PMN's can phagocytose biofilm bacteria [T. Bjarnsholt et al., Microbiology, 2005, 151, p. 3873-3880]. (E,Z) ajoene having an E:Z ratio of 1:4 was used.

[2] = system: P. aeruginosa PAO1; assay type: in vivo
Method: Mice were sacrificed on day one or day three post-infection and the contents of bacteria in the lungs were determined. Open squares indicate bacterial lung content per lung for each individual mouse. The median values are indicated with a filled black square. The statistic significance of difference in clearance was tested by a Mann-Whitney U test (analysis of nonparametric data) and p-values for the difference at day one and day three were 0.9 and 0.002 respectively.
In this study ajoene was administered prophylactic and subsequently continued after infection. Injections were given subcutaneous in the peritoneum. We performed three individual in vivo treatment experiments with ajoene in the mouse model of pulmonary infection using the P. aeruginosa PAO1. BALB/c mice were intracheally challenged (at day 0) with alginate beads containing 1.5×10^8 CFU/ml P. aeruginosa. The two groups of mice were either untreated (placebo) or treated with ajoene 25 μg/g mouse once a day. The mice were given two days of prophylactic treatment or placebo prior to bacterial challenge. Treatment was continued for three days. […] When combining the experiments a significant difference on day three was seen (p<0.002) with a 500 fold difference in clearance between the groups (FIG. 7). This is concordant with the results obtained by Bjarnsholt et al (2005) in a similar lung infection model in with raw garlic extract was used as treatment [T. Bjarnsholt et al., Microbiology, 2005, 151, p. 3873-3880].
This highlights that a synthesis providing a sufficiently pure “crude” ajoene product is essential in order to avoid the use of HPLC purification, as this step has a detrimental effect on biological activity. […] (E,Z) ajoene having an E:Z ratio of 1:4 was used.

[3] = system: P. aeruginosa; details: E:Z=1:4 isomer used; cited from earlier work
[4] = system: PA2069; experiment: DNA microarray, gene expression in ajoene treated P. aeruginosa cultures; assay type: cell-based; details: E:Z 1:4, OD600 2.0
Method: (§1) DNA microarray analysis was used to identify genes regulated by ajoene treatment. As a reference we have used the QS regulon previously identified by Hentzer et al., [M. Hentzer et al., EMBO J., 2003, 22, p. […] Exponential growing P. aeruginosa cultures were treated with the following four concentrations of ajoene; 10 μg/ml (42.7 μM), 20 μg/ml (85.4 μM), 40 μg/ml (170.8 μM) and 80 μg/ml (341.6 μM). (E,Z) ajoene having an E:Z ratio of 1:4 was used. […] The samples were retrieved at an OD600 nm of 2.0 (optical density) because previous investigations have shown the highest activity among the QS genes at that cell density. Gene expression of the treated cultures was compared to an untreated control.

[5] = system: PA2570 pa1L; experiment: as above; assay type: cell-based; details: pa1L PA2570 (LecA), E:Z 1:4, OD600 2.0
Method: as §1

[6] = system: PA3478 rhlB; experiment: as above; assay type: cell-based; details: E:Z 1:4, OD600 2.0
Method: as §1

[7] = system: PA2146; experiment: as above; assay type: cell-based; details: E:Z 1:4, OD600 2.0
Method: as §1

[8] = system: PA1871 lasA; experiment: as above; assay type: cell-based; details: E:Z 1:4, OD600 2.0
Method: as §1

[9] = system: lasB; experiment: as above; assay type: cell-based; details: ajoene 10-80 μg/ml
Method: as §1

[10] = system: PA0852 cbpD; experiment: as above; assay type: cell-based; details: E:Z 1:4, OD600 2.0
Method: as §1

[11] = system: PA3479 rhlA; experiment: as above; assay type: cell-based; details: E:Z 1:4, OD600 2.0
Method: as §1

[12] = system: PA4142; experiment: as above; assay type: cell-based; details: E:Z 1:4, OD600 2.0
Method: as §1

[13] = system: PA4175 prpL; experiment: as above; assay type: cell-based; details: E:Z 1:4, OD600 2.0
Method: as §1

[14] = system: PA4141; experiment: as above; assay type: cell-based; details: E:Z 1:4, OD600 2.0
Method: as §1

[15] = system: PA2300 chic; experiment: as above; assay type: cell-based; details: E:Z 1:4, OD600 2.0
Method: as §1

[16] = system: Gram positive bacteria; details: E:Z=1:4 isomer used; cited from earlier work
[17] = system: P. aeruginosa cultures; experiment: Growth inhibitory effect on exponential growing cultures; assay type: cell-based; details: 10, 20, 40 and 80 μg/ml ajoene; E:Z 1:4
Method: as §1

## C=CCSSC=CC[S+]([O-])CC=C (stereo not drawn) [ajoene, (E,Z)-4,5,9-trithiadodeca-1,6,11-triene-9-oxide]
[1]
  necrosis of PMNs on biofilm (PI staining): no necrosis of the PMNs was observed
[2]; day three, 25 μg/g mouse once a day subcutaneous, two days prophylactic, three experiments combined
  difference in clearance between treated and placebo groups: 500 fold
[2]; mouse, in vivo
  tolerability of the administered dosage: tolerated well
[3]
  growth inhibitory effect on P. aeruginosa: no measurable growth inhibitory effect
[4]; [Ajoene] 10 μg/ml
  fold change in gene expression compared to an untreated control: −2.3 fold
[4]; [Ajoene] 20 μg/ml
  fold change in gene expression compared to an untreated control: −2.4 fold
[4]; [Ajoene] 40 μg/ml
  fold change in gene expression compared to an untreated control: −4.0 fold
[4]; [Ajoene] 80 μg/ml
  fold change in gene expression compared to an untreated control: −5.3 fold
[5]; [Ajoene] 10 μg/ml
  fold change in gene expression compared to an untreated control: −1.8 fold
[5]; [Ajoene] 20 μg/ml
  fold change in gene expression compared to an untreated control: −2.0 fold
[5]; [Ajoene] 40 μg/ml
  fold change in gene expression compared to an untreated control: −3.3 fold
[5]; [Ajoene] 80 μg/ml
  fold change in gene expression compared to an untreated control: −6.3 fold
[6]; [Ajoene] 10 μg/ml
  fold change in gene expression compared to an untreated control: −2.6 fold
[6]; [Ajoene] 20 μg/ml
  fold change in gene expression compared to an untreated control: −2.0 fold
[6]; [Ajoene] 40 μg/ml
  fold change in gene expression compared to an untreated control: −3.3 fold
[6]; [Ajoene] 80 μg/ml
  fold change in gene expression compared to an untreated control: −8.7 fold
[7]; [Ajoene] 10 μg/ml
  fold change in gene expression compared to an untreated control: −1.3 fold
[7]; [Ajoene] 20 μg/ml
  fold change in gene expression compared to an untreated control: −1.8 fold
[7]; [Ajoene] 40 μg/ml
  fold change in gene expression compared to an untreated control: −2.6 fold
[7]; [Ajoene] 80 μg/ml
  fold change in gene expression compared to an untreated control: −7.3 fold
[8]; [Ajoene] 10 μg/ml
  fold change in gene expression compared to an untreated control: −2.6 fold
[8]; [Ajoene] 20 μg/ml
  fold change in gene expression compared to an untreated control: −2.2 fold
[8]; [Ajoene] 40 μg/ml
  fold change in gene expression compared to an untreated control: −3.0 fold
[8]; [Ajoene] 80 μg/ml
  fold change in gene expression compared to an untreated control: −8.7 fold
[9]
  down regulation of lasB (DNA microarray): not more than 5 fold
[10]; [Ajoene] 10 μg/ml
  fold change in gene expression compared to an untreated control: −2.8 fold
[10]; [Ajoene] 20 μg/ml
  fold change in gene expression compared to an untreated control: −2.5 fold
[10]; [Ajoene] 40 μg/ml
  fold change in gene expression compared to an untreated control: −3.9 fold
[10]; [Ajoene] 80 μg/ml
  fold change in gene expression compared to an untreated control: −6.9 fold
[11]; [Ajoene] 10 μg/ml
  fold change in gene expression compared to an untreated control: −2.2 fold
[11]; [Ajoene] 20 μg/ml
  fold change in gene expression compared to an untreated control: −1.5 fold
[11]; [Ajoene] 40 μg/ml
  fold change in gene expression compared to an untreated control: −2.6 fold
[11]; [Ajoene] 80 μg/ml
  fold change in gene expression compared to an untreated control: −8.8 fold
[12]; [Ajoene] 10 μg/ml
  fold change in gene expression compared to an untreated control: −2.0 fold
[12]; [Ajoene] 20 μg/ml
  fold change in gene expression compared to an untreated control: −2.2 fold
[12]; [Ajoene] 40 μg/ml
  fold change in gene expression compared to an untreated control: −2.7 fold
[12]; [Ajoene] 80 μg/ml
  fold change in gene expression compared to an untreated control: −5.1 fold
[13]; [Ajoene] 10 μg/ml
  fold change in gene expression compared to an untreated control: −3.7 fold
[13]; [Ajoene] 20 μg/ml
  fold change in gene expression compared to an untreated control: −3.3 fold
[13]; [Ajoene] 40 μg/ml
  fold change in gene expression compared to an untreated control: −5.3 fold
[13]; [Ajoene] 80 μg/ml
  fold change in gene expression compared to an untreated control: −6.8 fold
[14]; [Ajoene] 10 μg/ml
  fold change in gene expression compared to an untreated control: −1.0 fold
[14]; [Ajoene] 20 μg/ml
  fold change in gene expression compared to an untreated control: −1.1 fold
[14]; [Ajoene] 40 μg/ml
  fold change in gene expression compared to an untreated control: −1.3 fold
[14]; [Ajoene] 80 μg/ml
  fold change in gene expression compared to an untreated control: −5.4 fold
[15]; [Ajoene] 10 μg/ml
  fold change in gene expression compared to an untreated control: −2.5 fold
[15]; [Ajoene] 20 μg/ml
  fold change in gene expression compared to an untreated control: −2.1 fold
[15]; [Ajoene] 40 μg/ml
  fold change in gene expression compared to an untreated control: −5.1 fold
[15]; [Ajoene] 80 μg/ml
  fold change in gene expression compared to an untreated control: −24.6 fold
[16]
  growth inhibition of Gram positive bacteria: strong growth inhibitor
[17]
  growth inhibitory effects: do not exert any growth inhibitory effects
